# Data: a melting point compilation (Tetko et al.; mined from patent text by program, amines drawn as free bases though some values may be those of a salt)
row,SMILES,melting point [°C]
1,CCCCCCCCCCOc1cc(OCCCCCCCCCC)cc(N(CC(=O)OC)CC(=O)OC)c1,36 to 38
2,O=C1CC(NC(=O)C2CCCN3C(=O)CCC(NC(=O)c4ccc5c(c4)OCO5)C(=O)N23)C(OCc2ccccc2)O1 (stereo unspecified),135 to 140
3,CC(C)N(Cc1c(-c2ccccc2)sc(N)c1C(=O)c1ccc(Cl)cc1)C(C)C,185 to 187
4,O=C(Oc1ccc(-c2cc3ccccc3[nH]2)cc1)c1ccccc1,220
5,CCc1nn(-c2ccc(C(=N)N)cc2)c(=O)n1-c1ccc(CCC(=O)O)cc1,> 250
6,COC(=O)c1ccc(CNS(C)(=O)=O)cc1N,120 to 121
7,CC1(C)NC(=O)N(c2ccc([N+](=O)[O-])cc2C(F)(F)F)C1=O,175 to 176
8,Cc1cccc(NC(=O)NCC(=O)N(CC(=O)OC(C)(C)C)c2ccccc2OC(F)(F)F)c1,163
9,N=C(N)c1ccc(CC23CCCN2C(=O)N(c2cc(Cl)cc(Cl)c2)C3=O)cc1 (stereo unspecified),188
10,CC(=O)C1(c2ccc(Br)cc2)C=CC=CC1 (stereo unspecified),126 to 128
11,N#CCn1nc(-c2c(-c3ccccc3)nn3ccccc23)ccc1=O,218 to 219
12,CCOc1nn(-c2ccc(C(F)(F)F)cn2)cc1CCCOc1ccc(CCC(=O)O)cc1OCc1ccccc1,115 to 116
13,COC(=O)C(O)(c1ccc(Cl)c(Cl)c1)c1ccc(Cl)c(Cl)c1,69
14,Cc1cc(SCc2ccc(-c3ccc(C(F)(F)F)cn3)cc2)c2c(c1OCC(=O)O)CCO2,94 to 95
15,COc1ccc2c(c1)c(=O)c(-c1nnnn1C)cn2C,280 to 283
16,CS(=O)(=O)N(CCc1ccc(Cl)cc1)Cc1ccncc1,96 to 99
17,COC(=O)c1cccc(OCc2cc(Br)cs2)c1C(=O)OC,65
18,O=C1CCCc2c1cccc2N1CCN(CCCCOc2ccc3ccc(=O)[nH]c3n2)CC1,158 to 160
19,Cc1cc(-c2cc(COS(C)(=O)=O)c(=O)n(CC=Cc3ccc(Cl)cc3)n2)ccc1F,118 to 120
20,COc1cccc(C(=O)c2ccc(=O)n(Cc3ccc(Cl)cc3)c2)c1,104
21,COc1ccc(CNC(=O)c2ccccc2)cc1OC,101 to 102
22,CN(CCOc1ccc(C=CC=O)cc1F)c1ccccn1,93 to 94
23,CC(SCc1cc2cc(Cl)ccc2n1S(=O)(=O)c1ccccc1)C(=O)O (stereo unspecified),138
24,COc1nsnc1S(C)(=O)=O,110 to 112
25,Cc1cc(CCC(=O)O)nc(-c2nc(=O)c3ccc(Cl)cc3s2)c1,232 to 233
26,[N-]=[N+]=Nc1cc(Cl)nc(-c2ccco2)n1,117 to 119
27,CNC(=O)c1cccc2cccc(NC(=O)c3cccs3)c12,210

row,SMILES,melting point [°C]
1,COc1ccc(NC(C)c2oc3ccc(F)cc3c(=O)c2-c2cccc(F)c2)cc1 (stereo unspecified),152 to 156
2,CC(=O)Nc1ccc(-c2nc3ccccc3o2)cc1,214 to 215
3,O=[N+]([O-])c1ccc2c(c1)C(c1ccccc1)=NCc1nc(CO)cn1-2,250 to 251
4,CN(CCCN1C(=O)CSC1c1cc(C(C)(C)C)c(O)c(C(C)(C)C)c1)CCOc1ccc2c(c1)OCO2 (stereo unspecified),70 to 71
5,O=C(O)Cn1cc(Cc2nc3c(F)c(F)cc(F)c3s2)c2cccc(Br)c21,228 to 230
6,Cc1ccc(C(=O)c2cc(C(C)(C)C)c(O)c(C(C)(C)C)c2)c(Cl)n1,116 to 117
7,CC(=O)OCC1OC(OC2C(COC(C)=O)OC(Oc3ccc(N)cc3)C(OC(C)=O)C2OC(C)=O)C(OC(C)=O)C(OC(C)=O)C1OC(C)=O (stereo unspecified),174 to 176
8,CS(=O)(=O)c1ccc(-n2nc(C(F)(F)F)cc2-c2ccc(-c3cocn3)cc2)cc1F,164 to 166
9,CCC1=CC=CC(CC)(c2ccncc2)C1c1c(OC(=O)C(C)(C)C)n2n(c1=O)CCOCC2 (stereo unspecified),146 to 147
10,CCCNC(=O)c1cnc2ccc(C)cn2c1=O,126 to 128
11,O=C(c1ccccc1)N1CCc2cc(CCl)ccc21,108 to 110
12,CCCc1c(OC(C(=O)O)c2ccc(Cl)c(Cl)c2)ccc(C(C)=O)c1O (stereo unspecified),177 to 180
13,Cc1cc2c([C@@H]3C[C@H]3CNC(=O)c3ccccc3)cccn2n1 (relative stereo),112 to 113
14,CC1(C)C(=O)NCCN1C(=O)C(Cc1ccccc1)N1C(=O)c2ccccc2C1=O (stereo unspecified),221 to 223
15,CCOC(=O)C=Cc1ccc(C(=O)c2ccc3c(c2)C2(C)C4(C)CCC(C4)C2(C)O3)cc1 (stereo unspecified),115 to 116
16,CCOc1c(OC)c(OC)cc(C(=O)O)c1-c1c(C(=O)O)cc(OC)c2c1OCO2,236 to 237
17,Cc1ccc(-c2cnc(C#Cc3ccc(C)s3)s2)cc1,101 to 103
18,COc1cc(-c2ccc(Cl)cc2)cc2oc(=O)c(C)c(C)c12,148
19,CC(C)(Cc1c(C(C)(C)C)c2cc(OCc3ccc4ccccc4n3)ccc2n1Cc1ccc(Cl)cc1)C(=O)O,201 to 202
20,O=C1Nc2ccccc2N(C(=O)N2CCC(CCCCN3CCCC3)CC2)c2ncccc21,193 to 195
21,COc1ccc(C2c3c(C)c(N4CCN(c5ccc(OC)cc5)CC4)c(C)c(C)c3OC2(C)C)cc1 (stereo unspecified),205 to 207
22,Nc1cc(C(=O)CCC(=O)O)ccc1Br,169 to 171
23,CC(C)(C)C(=O)c1c[nH]c2ncc(-c3cccc(NC4CCCC4O)c3)nc12 (stereo unspecified),178 to 180
24,Cc1ccc(Cl)c(Nc2ccccc2C(=O)NN)c1Cl,158 to 160
25,CCNC(=O)c1ccccc1-c1ccccc1,77 to 79
26,COC(=O)CN(NC(N)=O)c1cc(C)cc(C)c1,139 to 141

# Results, then the compound that gave them:
row,melting point [°C],SMILES
1,254 to 257,CNc1nc(N(C2CC(C)(C)N(O)C(C)(C)C2)C2CC(C)(C)N(O)C(C)(C)C2)nc(N(C2CC(C)(C)N(O)C(C)(C)C2)C2CC(C)(C)N(O)C(C)(C)C2)n1
2,65,C#Cc1ccc(OC2CCCCO2)cc1 (stereo unspecified)
3,194 to 198,CCCc1nc2c(N)nc3cc(OCCCNC(=O)NS(=O)(=O)c4ccc(F)cc4)ccc3c2n1CC(C)C
4,115 to 118,CC(C)N(O)C(=O)c1c([Si](C)(C)C)sc2ccccc12
5,104 to 105,COc1ccc(C2=C(C=O)CCc3cc(OC)ccc32)cc1
6,64 to 65,C#CCOc1cc(C=O)cc(Cl)c1OCC#C
7,81.5 to 85.5,CN(C)CCCOc1ccc(N(C(=O)c2ccc(Cl)cc2)c2ccccc2)cc1
8,101 to 105,CCOC(=O)c1nnc(SC)nc1NCc1ccc(OC)c(Cl)c1
9,80 to 83,C#Cc1ccc(C(CC2CCCC2)C(=O)O)cc1 (stereo unspecified)
10,172 to 173,O=C1c2ccccc2C(O)N1CCN1CCC(c2noc3cc(F)ccc23)CC1 (stereo unspecified)
11,82 to 83,CC(C)Nc1cccnc1N1CCN(C(=O)c2ccc(C(=O)N[C@H](CO)C(C)C)cc2)CC1
12,114 to 119,COC(=O)c1csc2c(=O)cc(C3CCCCC3)oc12
13,219 to 222,Cn1cc(CO)c(=O)c2ccc(F)cc21
14,139 to 140,Cc1cc(CNC(=O)c2sc(N3C[C@@H](C)N(Cc4ccc(F)cc4)C3=O)nc2C)no1
15,192 to 194,N=C(NS(=O)(=O)C=Cc1ccccc1)c1ccccc1
16,141 to 146,CC(C)Nc1nc(Cl)nc(NCCS)n1
17,117 to 118,FC(F)(F)Sc1c(Cl)c(Cl)c(CBr)c(Cl)c1Cl
18,225 to 227,O=C(O)COc1ccc2c(-c3ccoc3)noc2c1Cl
19,176 to 178,Cc1ccccc1C(=O)Nc1ccc(C(=O)N2Cc3cccn3Cc3ccccc32)cc1Cl
20,65 to 66,CCc1nc(Cl)c(C=O)n1Cc1ccc2oc(-c3ccccc3NC(=O)OC(C)(C)C)c(Br)c2c1
21,162 to 164,COC(=O)NN=Cc1nc(-c2cccc(C)c2)[nH]c1C
22,132 to 134,COc1ccc(-c2nc(-c3ccc[nH]3)sc2-c2ccc(OC)cc2)cc1

row,melting point [°C],SMILES
1,150 to 155,COc1ccc(C(OCC2OC(n3cnc4c(=O)[nH]c(NC(=O)Cc5ccc(Br)cc5)nc43)CC2O)(c2ccccc2)c2ccc(OC)cc2)cc1 (stereo unspecified)
2,198 to 199,O=C(O)c1c(-c2ccc(Cl)c(Cl)c2)csc1N1C(=O)c2ccccc2C1=O
3,100 to 102,Cc1ccc(-c2nc(C(N)=O)cs2)cc1
4,163 to 165,CC(C)CC(=O)Nc1cccc(-c2ccnc3c(-c4cccc(C=O)c4)cnn23)c1
5,99 to 100,Nc1c(Cl)c(C(F)(F)F)nn1-c1c(Cl)cc(C(F)(F)F)cc1Cl
6,172,O=C(NC(Cc1ccccc1)C(=O)O)c1ccc2cc(NCc3ccccc3)ccc2c1 (stereo unspecified)
7,152 to 154,O=[N+]([O-])C=Cc1cccc2[nH]ccc12
8,231,O=[N+]([O-])c1ccc(O)c(Cn2c(=S)sc3ccccc32)c1
9,58,CCCCN(C(=O)NC)c1ccc(Cl)c(Cl)c1
10,105 to 107,COC(=O)C[C@H](O)C[C@@H](O)C=Cc1c(-c2ccc(F)cc2)c(-c2ccc(F)cc2)c(C(=O)OCc2ccccc2)n1C(C)C
11,83 to 84,COC(=O)CCC(=O)c1ccc(S)cc1
12,192,O=C(NC(=O)c1ccccc1Cl)Nc1cc(C(F)(F)F)c(F)cc1Br
13,112,Cc1c(C(=O)OC(C)(C)C)nn(-c2ccc(Cl)cc2Cl)c1-c1ccc(Cl)cc1
14,40 to 41,CC(C)=CCC/C(C)=C/CC/C(C)=C/CC/C(C)=C/CON1C(=O)c2ccccc2C1=O
15,70 to 71,CCOC(=O)CCc1oc(-n2ccnc2C)nc1-c1ccc(Cl)cc1
16,147 to 149,Cc1ccccc1-c1ccc(C(=O)N2Cc3ccc(C(=O)NCc4ccc(OC(F)(F)F)cc4)n3Cc3ccccc32)cc1C
17,268,Nc1ncc(-c2noc(-c3cnn4c(C(F)(F)F)cc(-c5ccc(Cl)cc5)nc34)n2)cn1
18,44 to 49,COCOc1ccc(Cl)c(F)c1C=O
19,63 to 65,COCCOC(=O)c1cc(-c2c(C(F)(F)F)nc(OC)[nH]c2=O)c(F)cc1Cl
20,183 to 186,Cn1cc(-c2ccccc2S(N)(=O)=O)cn1
21,207 to 208,O=[N+]([O-])c1cn2c(n1)O[C@@H](CN1CCN(Cc3ccc(-c4ccccc4)cc3)CC1)C2
